Source: ChEMBL document CHEMBL5247610, “Discovery of 5-((4-(pyridin-3-yl)pyrimidin-2-yl)amino)-1H-indole-2-carboxamide derivatives as novel anti-cancer agents targeting Nur77” (Eur J Med Chem, 2022)
Activity calls are given as the source filed them. No cut-off for these calls is given here.

Assays:
[1] = target: T1, Nuclear receptor subfamily 4immunitygroup A member 1 (Homo sapiens, UniProt P22736); assay: Binding affinity to Nur77 ligand binding domain (unknown origin) by surface plasmon resonance analysis
T1 sequence (P22736 whole entry, the tested form may be a part): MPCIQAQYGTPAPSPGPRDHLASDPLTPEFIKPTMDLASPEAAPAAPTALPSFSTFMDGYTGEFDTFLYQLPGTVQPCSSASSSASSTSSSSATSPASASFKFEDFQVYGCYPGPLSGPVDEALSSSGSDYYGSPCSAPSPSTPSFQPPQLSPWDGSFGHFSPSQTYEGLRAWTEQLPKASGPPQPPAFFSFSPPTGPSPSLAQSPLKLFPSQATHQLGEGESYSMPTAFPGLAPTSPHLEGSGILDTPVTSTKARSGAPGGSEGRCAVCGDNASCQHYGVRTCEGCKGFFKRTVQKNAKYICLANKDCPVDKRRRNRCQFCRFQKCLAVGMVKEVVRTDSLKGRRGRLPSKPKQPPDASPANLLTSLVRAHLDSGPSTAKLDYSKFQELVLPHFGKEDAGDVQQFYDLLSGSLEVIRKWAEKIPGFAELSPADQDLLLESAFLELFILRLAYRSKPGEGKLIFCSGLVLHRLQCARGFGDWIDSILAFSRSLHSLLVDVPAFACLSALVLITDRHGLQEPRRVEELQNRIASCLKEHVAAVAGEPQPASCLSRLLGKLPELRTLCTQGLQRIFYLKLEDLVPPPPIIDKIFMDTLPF

[2] = Toxicity in BALB/c nude mouse xenografted with human HepG2 cells assessed as body weight loss at 50 mg/kg, ip administered once every day for 14 days; type: organism-based; conditions: in vivo, 336 h, time 14 day
[3] = Cytotoxicity against human L02 cells assessed as cell viability at 10 uM incubated for 48 hrs by MTT assay; type: toxicity, cell-based; conditions: read-out: Activity
[4] = Selectivity index, ratio of IC50 for human L02 cells to IC50 for human HepG2 cells by MTT assay; type: toxicity; conditions: L02 cells versus HepG2 cells, read-out: Ratio IC50
HepG2 [5] = assay: Induction of apoptosis in human HepG2 cells transfected with Nur77 siRNA assessed as late apoptotic cells at 10 uM incubated for 12 hrs by AnnexinV-FITC/PI staining based flow cytometry (reference value: 1.98%); type: functional
HepG2 [6] = assay: Antitumor activity against human HepG2 cells xenografted in BALB/c nude mouse assessed as decrease in Ki67 expression in tumor tissues at 50 mg/kg, ip administered once every day for 14 days by immunohistochemistry analysis; type: functional, organism-based; conditions: time 14.0 day
[7] = target: T1, Nuclear receptor subfamily 4immunitygroup A member 1; assay: Binding affinity to pBind-Nur77-LBD (unknown origin) transfected in HEK293T cells co-transfected with pG5-Luc assessed as inhibition of Nur77 transcriptional activity by measuring inhibition of Nur77-driven luciferase activity at 5 uM incubated for 12 hrs by luciferase reporter gene assay; type: cell-based; conditions: filed as modulator
[8] = Toxicity in Zebra fish AB embryo assessed as induction of morphological abnormalities at 0.5 uM incubated for 72 hrs; set-up: species or system Danio rerio; conditions: zebrafish
HepG2 [9] = assay: Induction of apoptosis in human HepG2 cells assessed as mitochondrial membrane potential loss by measuring proportion of cells with depolarized MMP at 10 uM incubated for 12 hrs by JC-1 staining based flow cytometry (reference value: 5.81%); type: functional
HepG2 [10] = assay: Antiproliferative activity against human HepG2 cells assessed as reduction in cell viability incubated for 48 hrs by MTT assay; type: functional, cell-based; conditions: HepG2, 48 h
HepG2 [11] = assay: Induction of apoptosis in human HepG2 cells assessed as early apoptotic cells at 10 uM incubated for 12 hrs by AnnexinV-FITC/PI staining based flow cytometry (reference value: 0.83%); type: functional
[12] = Selectivity index, ratio of IC50 for human L02 cells to IC50 for human Huh-7 cells by MTT assay; type: toxicity; conditions: L02 cells versus Huh-7 cells, read-out: Ratio IC50
[13] = target: T2, Retinoic acid receptor RXR-alpha (Homo sapiens) (UniProt P19793); assay: Binding affinity to pBind-RXRalpha-LBD (unknown origin) transfected in HEK293T cells co-transfected with pG5-Luc at 5 uM incubated for 12 hrs by luciferase reporter gene assay; type: cell-based
T2 sequence (whole entry): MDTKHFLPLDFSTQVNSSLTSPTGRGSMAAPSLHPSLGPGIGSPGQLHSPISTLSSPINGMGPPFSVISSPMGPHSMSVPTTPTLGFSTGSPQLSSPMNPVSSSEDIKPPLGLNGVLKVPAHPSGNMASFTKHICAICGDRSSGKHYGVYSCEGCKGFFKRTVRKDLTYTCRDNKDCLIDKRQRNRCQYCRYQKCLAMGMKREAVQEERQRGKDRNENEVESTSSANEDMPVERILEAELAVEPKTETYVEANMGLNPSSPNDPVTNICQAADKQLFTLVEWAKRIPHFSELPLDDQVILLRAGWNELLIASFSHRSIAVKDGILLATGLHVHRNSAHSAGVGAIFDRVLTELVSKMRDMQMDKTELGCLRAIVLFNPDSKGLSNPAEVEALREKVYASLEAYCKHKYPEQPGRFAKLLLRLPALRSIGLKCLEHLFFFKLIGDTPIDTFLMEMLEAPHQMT

[14] = target: T1, Nuclear receptor subfamily 4immunitygroup A member 1; assay: Modulation of Myc-Nur77-LBD (unknown origin) transfected in human HepG2 cells assessed as induction of Nur77 translocation from nucleus to mitochondria at 10 uM incubated for 3 hrs by confocal microscopy; conditions: filed as modulator
HeLa = assay: Antiproliferative activity against human HeLa cells assessed as reduction in cell viability incubated for 48 hrs by MTT assay; type: functional, cell-based
[15] = Toxicity in BALB/c nude mouse xenografted with human HepG2 cells assessed as effect on heart damage at 50 mg/kg ip administered once every day for 14 days by H and E staining based analysis; type: organism-based; conditions: in vivo, 336 h, time 14 day
HepG2 [16] = assay: Antitumor activity against human HepG2 cells xenografted in BALB/c nude mouse assessed as inhibition of tumor growth at 50 mg/kg, ip administered once every day for 14 days; type: functional; conditions: HepG2, 336 h, time 14 day, read-out: TGI
[17] = Selectivity index, ratio of IC50 for human L02 cells to IC50 for human HeLa cells by MTT assay; type: toxicity; conditions: L02 cells versus HeLa cells, read-out: Ratio IC50
HepG2 [18] = assay: Induction of apoptosis in human HepG2 cells assessed as induction of PARP cleavage incubated for 12 hrs by western blot analysis; type: functional, cell-based
HepG2 [19] = assay: Induction of apoptosis in human HepG2 cells transfected with Nur77 siRNA assessed as induction of PARP cleavage at 10 to 15 uM incubated for 12 hrs by western blot analysis; type: functional, cell-based; conditions: dose 10-15 µM
HepG2 [20] = assay: Induction of apoptosis in human HepG2 cells transfected with Nur77 siRNA assessed as early apoptotic cells at 10 uM incubated for 12 hrs by AnnexinV-FITC/PI staining based flow cytometry (reference value: 1.37%); type: functional
HepG2 [21] = assay: Induction of apoptosis in human HepG2 cells transfected with Nur77 siRNA assessed as viable cells at 10 uM incubated for 12 hrs by AnnexinV-FITC/PI staining based flow cytometry (reference value: 96.34%); type: functional; conditions: read-out: Activity
HepG2 [22] = assay: Induction of apoptosis in human HepG2 cells assessed as necrotic cells at 10 uM incubated for 12 hrs by AnnexinV-FITC/PI staining based flow cytometry (reference value: 0.92%); type: functional
[23] = Toxicity in BALB/c nude mouse xenografted with human HepG2 cells assessed as effect on kidney damage at 50 mg/kg ip administered once every day for 14 days by H and E staining based analysis; type: organism-based; conditions: in vivo, 336 h, time 14 day
MDA-MB-231 = assay: Antiproliferative activity against human MDA-MB-231 cells assessed as reduction in cell viability incubated for 48 hrs by MTT assay; type: functional, cell-based; conditions: MDA-MB-231, 48 h
[24] = Toxicity in BALB/c nude mouse xenografted with human HepG2 cells assessed as effect on liver damage at 50 mg/kg ip administered once every day for 14 days by H and E staining based analysis; type: organism-based; conditions: in vivo, 336 h, time 14 day
HepG2 [25] = assay: Induction of apoptosis in human HepG2 cells transfected with Nur77 siRNA assessed as mitochondrial membrane potential loss by measuring proportion of cells with depolarized MMP at 10 uM incubated for 12 hrs by JC-1 staining based flow cytometry (reference value: 5.81%); type: functional
HepG2 [26] = assay: Antitumor activity against human HepG2 cells xenografted in BALB/c nude mouse assessed as inhibition of tumor weight at 50 mg/kg, ip administered once every day for 14 days; type: functional, organism-based; conditions: time 14.0 day

- Kd [1]: 0.354 µM
- Activity ([1]; filed as modulator): Dose-Dependent Effect
- Activity [7]: Active
- IC50 (HepG2 [10]): 9.04 µM
- Activity [13]: inactive
- Activity [14]: Active
- IC50 (HeLa): 3.75 µM
- IC50 (MDA-MB-231): 3.24 µM
SMILES: CN(C)CCCNC(=O)c1cc2cc(Nc3nccc(-c4cccnc4)n3)ccc2[nH]1
- Activity [2]: Non-Toxic
- viability at 48 h, 10 µM [3]: 53.4%
- selectivity ratio [4]: 1.24
- Activity (HepG2 [5]): 2.28%
- Activity (HepG2 [6]): Active
- Activity [8]: Non-Toxic
- Activity (HepG2 [9]): 21.34%
- Activity (HepG2 [11]): 16.5%
- selectivity ratio [12]: 3.14
- Activity [15]: Non-Toxic
- inhibition in vivo at 50 mg/kg (HepG2 [16]): 71.8%
- selectivity ratio [17]: 3
- Activity (HepG2 [18]): Dose-Dependent Effect
- Activity (HepG2 [19]): inactive
- Activity (HepG2 [20]): 1.92%
- viability at 10 µM (HepG2 [21]): 95.1%
- Activity (HepG2 [22]): 2.83%
- Activity [23]: Non-Toxic
- Activity [24]: Non-Toxic
- Activity (HepG2 [25]): 8.91%
- Activity (HepG2 [26]): Active
